Results reported in US4288609A, “Quaternary ammonium derivatives of adamantane with antimicrobic activity” (priority 1976, dated 1981).
Read-outs that look alike come from different tables or passages of the source.

What was measured:
[1] = test system: Diplococcus Pneum. ISM; experiment: M.I.C. in vitro, gram+ Diplococcus Pneum. (Table 1); type: cell-based; settings: read-out: M.I.C.
Protocol: (§1) The method for evaluating the activity in vitro against bacteria, fungi and protozoa consists in introducing calculated quantities of the substance, the activity of which it is desired to test, into culture media already inoculated with a predetermined number of test germs.
(§2) After 24 or 48 hours of incubation at 30° or 37° C., according to the micro-organism being tested, it is possible to evaluate the growth of the same in the culture broth; in this manner the minimum concentration (M.I.C.) which inhibits the growth of the micro-organisms in vitro is determined.
(§3) In table 1 there are recorded the M.I.C. values in γ/ml of the products subject of the present invention, against certain gram+ and gram- bacterial strains, some of which are pathogenic towards human beings.

[2] = test system: Proteus Vulc. ATCC 881; experiment: M.I.C. in vitro, gram- Proteus Vulc. (Table 1); type: cell-based; settings: read-out: M.I.C.
Protocol: as §1, §2, §3

[3] = test system: Candida Albic. SKF 2270; experiment: MIC yeasts, Candida albicans (Table 2); type: cell-based; settings: for MIC: Sabourand broth; for activity on Candida albicans, times greater than that of cetyl pyridine chloride: in the absence of serum; for activity on Candida albicans, times higher than that of cetyl pyridine chloride: in the presence of 10% of horse serum
Protocol: as §1, §2
Inoculation with Candida albicans or Candida pseudotropicalis was made by diluting cultures grown for 24 h at 30° C. (cellular density inoculated 10^3 /ml).
(§4) For the fungi Sabourand broth was used as a culture medium, whilst for the protozoa Kupferberg Trichomonas broth with 5% of horse serum was used.

[4] = test system: Trich. Vaginalis ISM 66/22; experiment: MIC protozoa, Trichomonas vaginalis (Table 2); type: cell-based; settings: +10% serum (head), Kupferberg Trichomonas broth with 5% of horse serum
Protocol: as §1, §2
Inoculation with Trichomonas vaginalis and Trichomonas foetus, obtained from cultures transplanted every other day to make them lively, was effected in a ratio of 3.5% of the volume of medium used.
as §4

[5] = test system: Staphylococcus Aureus Tour; experiment: Speed of sterilising action, Staphylococcus Aureus (Table 3); type: cell-based
Protocol: (§5) The strains, inoculants, culture broths and experimental methods are as already seen for calculating the M.I.C. in vitro. The antimicrobic substances were tested at concentrations of 0.1, 0.25, 0.5 and 1 g/l, the contact times taken into consideration are 0, 1, 2.5, 5, 7.5, 10, 15, 30 and 60 minutes.
(§6) The samples which at the 7th day of incubation still had no growth of micro-organisms which could be observed macroscopically and/or microscopically were considered sterile.
(§7) The results are recorded in Table 3 in terms of sterilization time expressed in minutes.

[6] = test system: Trichophyton Mentagrophytes Ist. Pasteur; experiment: Speed of sterilising action, Trichophyton Mentagrophytes (Table 3); type: cell-based
Protocol: as §5, §6, §7

[7] = test system: Trichomonas Vaginalis ISM 66/22; experiment: Speed of sterilising action, Trichomonas Vaginalis (Table 3); type: cell-based
Protocol: as §5, §6, §7

[8] = test system: Candida albicans; experiment: Activity upon vaginal candidiasis in mice (Table 7); type: in vivo, female Swiss mice (Charles River CD1); settings: for proliferation index (individual): eighth day
Protocol: The treatment groups consist each of 8 female Swiss mice (Charles River CD1) of average weight 20 g. The animals are infected with 0.025 ml of a 24 hour culture of Candida albicans, equal to 10^6 cellules.
0.025 ml of a suspension in lanoline of the compound to be tested, at the desired concentration, are applied locally twice a day for a week, the first treatment being started five hours after infection.
The control group is treated with the lanoline alone in the same way. On the eighth day vaginal washings are carried out with 0.025 ml of sterile physiological solution, and the liquid is sown in Petri dishes containing Bacto Biggy Agon Difco as a selective growing medium for the Candida.
After 48 hours of incubation of the dishes at 30° C. a count is taken of the colonies which have grown. Assessment of the activity is quantized using the indices listed here below:
The results are expressed as percentages of the average index of seriousness of the infection A.D.I. (Average Degree of Infection) in the animals treated with respect to the animals in the control group.
The substances under examination were tested at concentrations of 5 and 3% by weight.

[9] = test system: gram+ and gram- bacterial strains; experiment: Activity in vitro on gram+ and gram- bacteria, overall; type: cell-based; settings: gram positive and gram negative strains, low concentrations
Protocol: as §1, §2, §3

[10] = Candida, +10% serum, read-out: MIC
[11] = Candida, without serum, read-out: MIC
[12] = Trichomonas vaginalis, read-out: MIC

Row | Structure (SMILES) | MIC ([1]; +10% serum) [µg/mL] | MIC ([1]; without serum) [µg/mL] | MIC ([2]; +10% serum) [µg/mL] | MIC ([2]; without serum) [µg/mL] | activity on Candida albicans, times greater than that of cetyl pyridine chloride [3] | activity on Candida albicans, times higher than that of cetyl pyridine chloride [3] | sterilization time ([5]; 0.1 g/l) [min] | sterilization time ([5]; 0.25 g/l) [min] | sterilization time ([6]; 0.1 g/l) [min] | sterilization time ([6]; 0.25 g/l) [min] | sterilization time ([6]; 0.5 g/l) [min] | sterilization time ([6]; 1 g/l) [min] | % of healing (100-A.D.I. %) ([8]; 3% by weight) [%] | A.D.I. (compared with controls) ([8]; 3% by weight) [%] | average proliferation index (A.D.I) ([8]; 3% by weight) | % of healing (100-A.D.I. %) ([8]; 5% by weight) [%] | A.D.I. (compared with controls) ([8]; 5% by weight) [%] | average proliferation index (A.D.I) ([8]; 5% by weight) | topical in vivo activity against Candida albicans (in words) ([8]; mouse, in vivo) | antibacterial activity (in words) [9] | further results
1 | CCCCCCCCCC[N+](C)(C)CCOC(=O)C12CC3CC(CC(C3)C1)C2 (single isomer, unassigned) [Example 1, n-Decyl-dimethyl-(1-adamantane-carboxy)-ethyl-ammonium bromide] | 5 | 1 | 50 | 10 | about 25 times | 5-10 times | 7.5 | 2.5 | 60 | 30 | 15 | 5 | 63.03 | 36.97 | 0.88 | 84.03 | 15.97 | 0.38 | excellent topical activity "in vivo" even against Candida albicans | powerful antibacterial activity at low concentrations | MIC ([3]; +10% serum): 10 µg/mL; MIC ([3]; without serum): 0.2 µg/mL; MIC [4]: 5 µg/mL; sterilization time ([5]; 0.5 g/l): 1 min; sterilization time ([5]; 1 g/l): 1 min; sterilization time ([7]; 0.1 g/l): 2.5 min; sterilization time ([7]; 0.25 g/l): 1 min; sterilization time ([7]; 0.5 g/l): 1 min; sterilization time ([7]; 1 g/l): 1 min; no. of animals surviving ([8]; mouse, in vivo): 8; tolerance by vaginal mucous membrane ([8]; mouse, in vivo): perfectly tolerated by very delicate tissues
2 | CCCCCCCCCCCC[N+](C)(C)CCOC(=O)C12CC3CC(CC(C3)C1)C2 [Example 4] | 5 | 0.5 | 100 | 2 | about 25 times | 5-10 times | 7.5 | 5 | 60 | 60 | 15 | 5 | 57.98 | 42.02 | 1.00 | 84.03 | 15.97 | 0.38 | excellent topical activity "in vivo" even against Candida albicans | powerful antibacterial activity at low concentrations | MIC [3, 10]: 20 µg/mL; MIC [3, 11]: 0.2 µg/mL; MIC [4, 12]: 5 µg/mL; sterilization time ([5]; 0.5 g/l): 1 min; sterilization time ([5]; 1 g/l): 1 min; sterilization time ([7]; 0.1 g/l): 2.5 min; sterilization time ([7]; 0.25 g/l): 1 min; sterilization time ([7]; 0.5 g/l): 1 min; sterilization time ([7]; 1 g/l): 1 min; no. of animals surviving ([8]; 3% by weight, 8 animals): 8; proliferation index (individual) ([8]; 3% by weight): 2-0-1-1-1-1--0-2; no. of animals surviving ([8]; 5% by weight, 8 animals): 8; tolerance by vaginal mucous membrane ([8]; mice, local): perfectly tolerated by very delicate tissues
3 | CCCCCCCCCCCC[N+](C)(C)CCNC(=O)C12CC3CC(CC(C3)C1)C2 [Example 8] | 5 | 1 | 100 | 5 | about 25 times | 5-10 times | – | – | 60 | 60 | 10 | 5 | 63.03 | 36.97 | 0.88 | 78.99 | 21.01 | 0.50 | excellent topical activity "in vivo" even against Candida albicans | powerful antibacterial activity at low concentrations | MIC [3, 10]: 20 µg/mL; MIC [3, 11]: 0.2 µg/mL; MIC [4, 12]: 2 µg/mL; proliferation index (individual) ([8]; 3% by weight): 0-1-1-3-0-0-0-2; no. of animals surviving ([8]; 5% by weight, 8 animals): 2; proliferation index (individual) ([8]; 5% by weight): 0-0-0-2-1-0-0-1; tolerance by vaginal mucous membrane ([8]; mice, local): perfectly tolerated by very delicate tissues
